Measurements as given in patent publication US20060128720A1, “Inhibition of cell death responses induced by oxidative stress” (priority 2002, published 2006).

Experiments:
U-937 cells = assay: H2O2-induced apoptosis (sub-G1 DNA, propidium iodide) in U-937 cells; type: cell-based, human; settings: 10 μM 24 hours, then 1 mM H2O2 18 hours
Procedure: (§1) Ethanol-fixed cells were stained with propidium iodide and monitored for sub-G1 DNA (upper panels). The percentage (mean±S.E.) of cells with sub-G1 DNA was determined from three separate experiments (lower panels).
(§2) Ethanol-fixed cells were stained with propidium iodide and monitored for sub-G1 DNA by FACScan (Becton-Dickinson) (FIGS. 3A and 3C). The percentage (mean±S.E.) of cells with sub-G1 DNA was determined from three separate experiments (FIGS. 3B and 3D).

[1] = tested on: mouse embryo fibroblasts (MEFs); assay: Mitochondrial transmembrane potential (Rhodamine123 flow cytometry) in MEFs; type: cell-based; settings: 10 μM 24 hours
Procedure: The cells were stained with 50 ng/ml Rhodamine123 for 15 minutes and analyzed by flow cytometry (left panels).
The cells were stained with 50 ng/ml Rhodamine123 (Molecular Probes) for 15 minutes at 37° C. Samples were analyzed by flow cytometry using 488 nm excitation and measurement of emission through a 576/26 (ethidium) bandpass filter (FIGS. 2A and 2B, left panels).

[2] = tested on: mouse embryo fibroblasts (MEFs); assay: H2O2-induced apoptosis (sub-G1 DNA, propidium iodide) in MEFs; type: cell-based; settings: 10 μM 24 hours, then 1 mM H2O2 18 hours
Procedure: as §1, §2

Cc1ccc(NC(=O)c2ccc(CN3CCN(C)CC3)cc2)cc1Nc1nccc(-c2cccnc2)n1 [STI571, 4-[(4-Methyl-1-piperazinyl)methyl]-N-[4-methyl-3-[[4-(3-pyridinyl)-2-pyrimidinyl]amino-]-phenyl]benzanide methanesulfonate]
inhibition of H2O2-induced apoptosis (cells with sub-G1 DNA) (U-937 cells): over 80% | effect of STI571 alone on mitochondrial transmembrane potential ([1]; no H2O2): no apparent effect | H2O2-induced decrease in mitochondrial transmembrane potential ([1]; then 1 mM H2O2 6 hours): substantially inhibited | inhibitory effects on loss of mitochondrial transmembrane potential at longer periods of H2O2 exposure ([1]; then H2O2 18 hours): detectable | decrease of H2O2-induced apoptosis (cells with sub-G1 DNA) [2]: 50%
